Test results published in publication PMC8381602, “Non-palm Plant Volatile α-Pinene Is Detected by Antenna-Biased Expressed Odorant Receptor 6 in the Rhynchophorus ferrugineus (Olivier) (Coleoptera: Curculionidae)” (Frontiers in Physiology, 2021).

System: T1, RferOr6/RferOrco
T1 construct: full-length ORF of RferOr6 (382 residues, 7 predicted TMDs) cloned from antennal cDNA in pT7TS; cRNA co-injected 1:1 with RferOrco in Xenopus oocytes; with Odorant receptor coreceptor
Assay: two-electrode voltage clamp, Xenopus oocytes, dose-response
Format: cell-based, Rhynchophorus ferrugineus
Conditions: agonist; co-expressed with RferOrco 1:1; holding potential -80 mV; Ringer's buffer pH 7.6; 20 s exposure

EC50: 94.5 µM
Compound: CC1=CCC2CC1C2(C)C (stereo not drawn) [α-pinene]
